Reference: ChEMBL document CHEMBL4507274 (2021)

How the values were obtained:
[1] = target: Mitogen-activated protein kinase 1 (Homo sapiens) (UniProt P28482); experiment: MAPK1 (h) Upstate kinase activity assay; settings: Compound concentration 10.0 uM
[2] = test system: Phosphatidylinositol 4,5-bisphosphate 3-kinase catalytic subunit alpha isoform (Homo sapiens), P42336 [I800L]; settings: Compound concentration 100.0 nM
[3] = target: Non-receptor tyrosine-protein kinase TYK2 (Homo sapiens) (UniProt P29597); settings: Compound concentration 100.0 nM
Sequence of Non-receptor tyrosine-protein kinase TYK2 (Homo sapiens) (P29597 whole entry): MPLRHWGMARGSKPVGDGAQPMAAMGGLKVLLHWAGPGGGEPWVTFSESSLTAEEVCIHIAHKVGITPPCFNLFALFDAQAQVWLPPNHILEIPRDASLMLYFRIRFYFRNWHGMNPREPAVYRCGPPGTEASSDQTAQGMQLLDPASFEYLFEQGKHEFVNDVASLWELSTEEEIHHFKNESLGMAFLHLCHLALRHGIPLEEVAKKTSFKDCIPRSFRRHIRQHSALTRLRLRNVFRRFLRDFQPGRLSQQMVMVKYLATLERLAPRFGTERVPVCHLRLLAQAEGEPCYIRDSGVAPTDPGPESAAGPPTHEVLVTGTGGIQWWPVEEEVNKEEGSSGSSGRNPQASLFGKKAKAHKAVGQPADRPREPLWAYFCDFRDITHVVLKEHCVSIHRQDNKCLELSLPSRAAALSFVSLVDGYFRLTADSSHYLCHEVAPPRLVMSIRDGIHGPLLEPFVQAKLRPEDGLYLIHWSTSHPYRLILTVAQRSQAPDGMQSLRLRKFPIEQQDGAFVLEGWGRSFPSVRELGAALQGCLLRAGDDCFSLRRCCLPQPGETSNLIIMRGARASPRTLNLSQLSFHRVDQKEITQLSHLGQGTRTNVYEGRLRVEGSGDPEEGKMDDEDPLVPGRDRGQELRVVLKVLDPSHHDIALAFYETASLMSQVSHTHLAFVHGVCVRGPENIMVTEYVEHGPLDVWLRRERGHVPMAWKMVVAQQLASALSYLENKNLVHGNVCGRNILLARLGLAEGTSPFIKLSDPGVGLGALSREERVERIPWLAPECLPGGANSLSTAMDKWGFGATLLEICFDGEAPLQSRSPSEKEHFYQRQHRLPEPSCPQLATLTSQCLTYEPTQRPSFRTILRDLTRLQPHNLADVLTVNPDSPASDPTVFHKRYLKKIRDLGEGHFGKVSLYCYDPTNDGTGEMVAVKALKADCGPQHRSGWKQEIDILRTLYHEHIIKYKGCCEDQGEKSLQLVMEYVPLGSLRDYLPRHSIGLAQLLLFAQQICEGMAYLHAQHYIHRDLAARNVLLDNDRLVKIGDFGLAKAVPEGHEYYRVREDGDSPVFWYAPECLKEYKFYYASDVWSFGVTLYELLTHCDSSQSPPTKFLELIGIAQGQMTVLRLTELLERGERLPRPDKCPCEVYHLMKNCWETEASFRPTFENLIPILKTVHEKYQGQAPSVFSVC

[4] = target: T1, Serine/threonine-protein kinase Chk1 (Homo sapiens) (UniProt O14757); experiment: CHK1 (h) Upstate kinase activity assay; settings: Compound concentration 10.0 uM
T1 sequence (whole entry): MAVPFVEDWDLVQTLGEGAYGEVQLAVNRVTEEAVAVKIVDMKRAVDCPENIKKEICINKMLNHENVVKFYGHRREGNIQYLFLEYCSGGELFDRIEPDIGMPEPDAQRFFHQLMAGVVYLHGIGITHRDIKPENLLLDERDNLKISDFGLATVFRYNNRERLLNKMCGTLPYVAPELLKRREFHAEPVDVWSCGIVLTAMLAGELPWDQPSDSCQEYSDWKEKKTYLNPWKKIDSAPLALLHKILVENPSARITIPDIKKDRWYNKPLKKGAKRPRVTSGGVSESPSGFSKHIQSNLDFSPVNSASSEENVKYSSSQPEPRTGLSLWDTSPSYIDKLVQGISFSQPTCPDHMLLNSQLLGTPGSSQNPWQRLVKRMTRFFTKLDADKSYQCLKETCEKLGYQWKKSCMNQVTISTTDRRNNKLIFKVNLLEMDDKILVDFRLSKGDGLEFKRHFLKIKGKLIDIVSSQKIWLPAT

[5] = target: MAP kinase-activated protein kinase 2 (Homo sapiens) (UniProt P49137); experiment: MAPKAP-K2 (h) Upstate kinase activity assay; settings: Compound concentration 10.0 uM
Sequence of MAP kinase-activated protein kinase 2 (Homo sapiens) (P49137 whole entry, looked up, canonical isoform): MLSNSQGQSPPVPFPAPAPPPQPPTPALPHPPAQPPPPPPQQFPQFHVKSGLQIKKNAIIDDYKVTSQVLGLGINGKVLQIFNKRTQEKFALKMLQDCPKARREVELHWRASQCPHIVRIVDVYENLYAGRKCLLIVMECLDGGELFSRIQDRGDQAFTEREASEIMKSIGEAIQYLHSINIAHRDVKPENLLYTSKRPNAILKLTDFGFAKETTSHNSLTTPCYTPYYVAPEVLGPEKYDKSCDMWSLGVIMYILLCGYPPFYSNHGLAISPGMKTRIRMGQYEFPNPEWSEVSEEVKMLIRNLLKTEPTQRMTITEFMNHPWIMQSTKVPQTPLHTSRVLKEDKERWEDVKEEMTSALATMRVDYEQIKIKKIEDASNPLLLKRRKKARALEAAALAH

[6] = target: Casein kinase I isoform gamma-1 (Homo sapiens) (UniProt Q9HCP0); settings: Compound concentration 100.0 nM
PANC-1 = experiment: Pancreas PANC-1 cell line MDS Pharma Services Proliferation Assay; assay type: functional, cell-based, Homo sapiens
[7] = target: Serine/threonine-protein kinase MARK2 (Homo sapiens) (UniProt Q7KZI7); experiment: PAR-1Balpha (h) Upstate kinase activity assay; settings: Compound concentration 10.0 uM
[8] = test system: Mast/stem cell growth factor receptor Kit (Homo sapiens), P10721 [V559D]; settings: Compound concentration 100.0 nM
Sequence of Mast/stem cell growth factor receptor Kit (Homo sapiens), P10721 [V559D] (P10721 whole entry V559D): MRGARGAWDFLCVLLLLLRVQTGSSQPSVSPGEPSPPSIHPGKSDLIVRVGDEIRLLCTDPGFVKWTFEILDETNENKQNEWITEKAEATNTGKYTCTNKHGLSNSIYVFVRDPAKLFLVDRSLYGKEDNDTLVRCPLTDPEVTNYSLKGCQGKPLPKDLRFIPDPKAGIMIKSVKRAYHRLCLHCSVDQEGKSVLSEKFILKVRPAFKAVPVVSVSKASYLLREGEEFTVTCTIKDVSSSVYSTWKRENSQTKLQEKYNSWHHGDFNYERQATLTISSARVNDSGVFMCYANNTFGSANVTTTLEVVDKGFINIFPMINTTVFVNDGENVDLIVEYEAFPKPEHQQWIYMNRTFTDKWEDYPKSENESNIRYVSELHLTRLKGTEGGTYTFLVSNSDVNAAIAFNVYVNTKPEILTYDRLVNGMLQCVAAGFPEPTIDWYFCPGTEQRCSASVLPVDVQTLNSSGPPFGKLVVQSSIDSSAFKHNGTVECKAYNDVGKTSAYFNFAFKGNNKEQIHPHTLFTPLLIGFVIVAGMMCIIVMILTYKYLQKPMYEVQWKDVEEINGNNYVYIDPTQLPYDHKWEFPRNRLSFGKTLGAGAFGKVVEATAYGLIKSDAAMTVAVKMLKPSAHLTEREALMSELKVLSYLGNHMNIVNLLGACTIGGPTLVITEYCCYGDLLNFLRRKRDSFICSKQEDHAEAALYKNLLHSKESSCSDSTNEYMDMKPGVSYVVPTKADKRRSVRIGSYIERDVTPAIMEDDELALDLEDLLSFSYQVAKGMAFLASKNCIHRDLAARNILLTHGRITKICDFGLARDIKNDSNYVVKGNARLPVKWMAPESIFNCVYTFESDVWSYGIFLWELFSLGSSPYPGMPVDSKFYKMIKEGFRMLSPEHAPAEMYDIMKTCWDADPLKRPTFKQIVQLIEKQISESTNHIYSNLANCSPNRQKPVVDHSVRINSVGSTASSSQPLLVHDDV

[9] = target: Insulin-like growth factor 1 receptor (Homo sapiens) (UniProt P08069); settings: Compound concentration 100.0 nM
[10] = target: Serine/threonine-protein kinase LATS2 (Homo sapiens) (UniProt Q9NRM7); settings: Compound concentration 100.0 nM
Sequence of Serine/threonine-protein kinase LATS2 (Homo sapiens) (Q9NRM7 whole entry): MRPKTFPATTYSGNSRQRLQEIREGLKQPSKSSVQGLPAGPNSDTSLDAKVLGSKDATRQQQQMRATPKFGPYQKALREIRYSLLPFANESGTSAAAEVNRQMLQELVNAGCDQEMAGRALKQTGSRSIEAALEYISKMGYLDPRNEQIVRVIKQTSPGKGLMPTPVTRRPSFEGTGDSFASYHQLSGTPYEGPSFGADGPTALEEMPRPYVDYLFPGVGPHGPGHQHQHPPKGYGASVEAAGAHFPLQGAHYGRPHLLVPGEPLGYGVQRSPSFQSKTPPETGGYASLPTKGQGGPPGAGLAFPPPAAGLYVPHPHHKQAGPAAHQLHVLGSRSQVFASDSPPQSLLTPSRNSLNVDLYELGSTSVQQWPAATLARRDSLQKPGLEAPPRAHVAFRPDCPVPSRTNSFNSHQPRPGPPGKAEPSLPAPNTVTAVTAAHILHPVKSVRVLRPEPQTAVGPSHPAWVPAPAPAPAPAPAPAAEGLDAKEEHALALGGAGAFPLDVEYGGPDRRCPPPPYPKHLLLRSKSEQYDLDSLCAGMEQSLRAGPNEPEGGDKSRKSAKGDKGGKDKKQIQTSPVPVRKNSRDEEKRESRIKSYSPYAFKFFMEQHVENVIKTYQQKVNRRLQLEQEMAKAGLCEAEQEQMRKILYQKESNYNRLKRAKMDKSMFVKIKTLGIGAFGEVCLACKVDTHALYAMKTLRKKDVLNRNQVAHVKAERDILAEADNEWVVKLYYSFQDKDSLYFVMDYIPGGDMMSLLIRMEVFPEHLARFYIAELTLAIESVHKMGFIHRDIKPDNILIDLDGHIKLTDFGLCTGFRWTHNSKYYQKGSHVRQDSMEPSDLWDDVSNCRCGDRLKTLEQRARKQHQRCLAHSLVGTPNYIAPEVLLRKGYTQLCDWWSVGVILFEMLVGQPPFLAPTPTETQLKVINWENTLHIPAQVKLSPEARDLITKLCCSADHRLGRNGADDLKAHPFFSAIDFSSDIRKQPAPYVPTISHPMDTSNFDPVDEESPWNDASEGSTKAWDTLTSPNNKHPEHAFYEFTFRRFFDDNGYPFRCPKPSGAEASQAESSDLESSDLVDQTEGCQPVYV

[11] = test system: Tyrosine-protein kinase ABL1 (Homo sapiens), P00519 [T315I]; experiment: Abl(T315I) (h) Upstate kinase activity assay; settings: Compound concentration 10.0 uM
[12] = target: Protein kinase C alpha type (Homo sapiens) (UniProt P17252); experiment: PKCalpha (h) Upstate kinase activity assay; settings: Compound concentration 10.0 uM
[13] = test system: Hepatocyte growth factor receptor (Homo sapiens), P08581 [Y1235D]; settings: Compound concentration 100.0 nM
[14] = target: T2, Dual specificity mitogen-activated protein kinase kinase 7 (Homo sapiens) (UniProt O14733); settings: Compound concentration 100.0 nM
T2 sequence (whole entry): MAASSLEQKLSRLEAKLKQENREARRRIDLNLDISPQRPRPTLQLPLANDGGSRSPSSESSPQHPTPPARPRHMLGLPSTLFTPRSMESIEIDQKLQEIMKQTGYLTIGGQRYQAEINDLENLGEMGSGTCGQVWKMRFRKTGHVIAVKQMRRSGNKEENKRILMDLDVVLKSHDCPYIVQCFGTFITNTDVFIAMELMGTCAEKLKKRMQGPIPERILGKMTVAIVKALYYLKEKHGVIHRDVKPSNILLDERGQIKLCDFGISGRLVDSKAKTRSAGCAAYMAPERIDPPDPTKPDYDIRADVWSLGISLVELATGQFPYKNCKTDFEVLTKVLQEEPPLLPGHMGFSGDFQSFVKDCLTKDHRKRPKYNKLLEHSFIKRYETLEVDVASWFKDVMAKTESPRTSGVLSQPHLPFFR

[15] = target: Inhibitor of nuclear factor kappa-B kinase subunit alpha (Homo sapiens) (UniProt O15111); settings: Compound concentration 100.0 nM
Sequence of Inhibitor of nuclear factor kappa-B kinase subunit alpha (Homo sapiens) (O15111 whole entry): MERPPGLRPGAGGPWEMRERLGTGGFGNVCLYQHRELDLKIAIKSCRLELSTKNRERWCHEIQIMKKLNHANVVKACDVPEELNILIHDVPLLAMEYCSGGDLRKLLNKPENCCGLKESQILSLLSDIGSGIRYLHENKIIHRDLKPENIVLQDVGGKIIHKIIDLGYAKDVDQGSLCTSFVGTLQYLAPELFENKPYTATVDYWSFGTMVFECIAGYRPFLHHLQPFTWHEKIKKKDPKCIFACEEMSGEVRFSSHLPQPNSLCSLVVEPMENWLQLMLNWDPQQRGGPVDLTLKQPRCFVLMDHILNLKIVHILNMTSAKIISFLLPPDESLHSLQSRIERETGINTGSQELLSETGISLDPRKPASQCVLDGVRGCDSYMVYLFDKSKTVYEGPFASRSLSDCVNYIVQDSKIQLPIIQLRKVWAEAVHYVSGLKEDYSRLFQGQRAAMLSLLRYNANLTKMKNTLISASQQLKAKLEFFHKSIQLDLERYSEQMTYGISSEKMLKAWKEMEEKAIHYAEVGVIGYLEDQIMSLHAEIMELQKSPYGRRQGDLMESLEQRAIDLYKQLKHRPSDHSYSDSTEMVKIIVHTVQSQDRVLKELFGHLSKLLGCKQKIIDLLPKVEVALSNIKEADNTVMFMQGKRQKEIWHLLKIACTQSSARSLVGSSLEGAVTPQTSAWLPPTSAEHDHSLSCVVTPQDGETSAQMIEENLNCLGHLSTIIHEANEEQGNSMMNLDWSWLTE

HT-29 = experiment: Colon HT-29 cell line MDS Pharma Services Proliferation Assay; assay type: functional, cell-based, Homo sapiens
[16] = target: Calcium/calmodulin-dependent protein kinase type II subunit gamma (Rattus norvegicus) (UniProt P11730); experiment: CaMKII (r) Upstate kinase activity assay; settings: Compound concentration 10.0 uM
[17] = target: Serine/threonine-protein kinase PAK 2 (Homo sapiens) (UniProt Q13177); experiment: PAK2 (h) Upstate kinase activity assay; settings: Compound concentration 10.0 uM
[18] = target: Serine/threonine-protein kinase Nek5 (Homo sapiens) (UniProt Q6P3R8); settings: Compound concentration 100.0 nM
Sequence of Serine/threonine-protein kinase Nek5 (Homo sapiens) (Q6P3R8 whole entry): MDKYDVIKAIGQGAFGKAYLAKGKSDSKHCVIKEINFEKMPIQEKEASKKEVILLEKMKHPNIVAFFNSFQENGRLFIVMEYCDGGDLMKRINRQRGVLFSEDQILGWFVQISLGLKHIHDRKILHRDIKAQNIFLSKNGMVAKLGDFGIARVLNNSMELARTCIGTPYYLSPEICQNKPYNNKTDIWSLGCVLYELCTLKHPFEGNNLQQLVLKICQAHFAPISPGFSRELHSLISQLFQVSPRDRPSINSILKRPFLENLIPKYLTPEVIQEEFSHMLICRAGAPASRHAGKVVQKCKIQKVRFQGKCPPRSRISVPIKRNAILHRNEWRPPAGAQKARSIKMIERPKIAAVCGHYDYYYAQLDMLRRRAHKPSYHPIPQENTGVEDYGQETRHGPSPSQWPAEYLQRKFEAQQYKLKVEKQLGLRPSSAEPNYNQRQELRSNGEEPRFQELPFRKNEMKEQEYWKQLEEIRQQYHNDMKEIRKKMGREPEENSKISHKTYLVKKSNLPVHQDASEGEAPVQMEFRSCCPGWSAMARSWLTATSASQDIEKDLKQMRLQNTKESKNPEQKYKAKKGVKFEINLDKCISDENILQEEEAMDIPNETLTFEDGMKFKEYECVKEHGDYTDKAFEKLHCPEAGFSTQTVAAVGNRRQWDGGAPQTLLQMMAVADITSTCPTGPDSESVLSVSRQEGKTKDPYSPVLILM

[19] = target: Serine/threonine-protein kinase 10 (Homo sapiens) (UniProt O94804); settings: Compound concentration 100.0 nM
[20] = target: Cyclin-dependent kinase 2/cyclin E (Homo sapiens) (UniProt P24864+P24941+O96020); experiment: CDK2/ cyclin E (h) Upstate kinase activity assay; assay type: protein-complex assay; settings: Compound concentration 10.0 uM
[21] = target: Calcium/calmodulin-dependent protein kinase type II subunit beta (Homo sapiens) (UniProt Q13554); settings: Compound concentration 100.0 nM
[22] = target: Epidermal growth factor receptor (Homo sapiens) (UniProt P00533); settings: Compound concentration 100.0 nM
[23] = test system: Epidermal growth factor receptor (Homo sapiens), P00533 [UNDEFINED MUTATION]; settings: Compound concentration 100.0 nM
[24] = test system: Epidermal growth factor receptor (Homo sapiens), P00533 [UNDEFINED MUTATION]; settings: Compound concentration 100.0 nM; remark: listed apart in the source

## Cc1c[nH]c2nccc(Oc3c(F)cc(Nc4cc(Cl)nc(N)n4)cc3F)c12 [BAY-549]
[1]
  inhibition: 1%
[2]
  residual activity: 90%
[3]
  residual activity: 89%
[4]
  inhibition: 9%
[5]
  inhibition: -6%
[6]
  residual activity: 100%
PANC-1; Homo sapiens, PANC-1
  TGI: 45 µM
PANC-1; Homo sapiens, PANC-1, read-out: LC50 (the source's name)
  CC50: > 100 µM
PANC-1; ± SEM 1 % growth
  Mean % growth (n = 2) for 10.0 µM probe concentration: 55%
PANC-1; ± SEM 2 % growth
  Mean % growth (n = 2) for 1.0 µM probe concentration: 87%
PANC-1; ± SEM 3 % growth
  Mean % growth (n = 2) for 0.1 µM probe concentration: 86%
PANC-1; ± SEM 8 % growth
  Mean % growth (n = 2) for 0.01 µM probe concentration: 98%
PANC-1; ± SEM 9 % growth
  Mean % growth (n = 2) for 100.0 µM probe concentration: -31%
[7]
  inhibition: 33%
[8]
  residual activity: 90%
[9]
  residual activity: 86%
[10]
  residual activity: 0.7%
[11]
  inhibition: 28%
[12]
  inhibition: 6%
[13]
  residual activity: 88%
[14]
  residual activity: 67%
[15]
  residual activity: 66%
HT-29; Homo sapiens, HT-29
  IC50: 2.9 µM
  TGI: 19 µM
HT-29; Homo sapiens, HT-29, read-out: LC50 (the source's name)
  CC50: > 100 µM
HT-29; ± SEM 1 % growth
  Mean % growth (n = 2) for 0.1 µM probe concentration: 95%
  Mean % growth (n = 2) for 1.0 µM probe concentration: 75%
HT-29; ± SEM 4 % growth
  Mean % growth (n = 2) for 10.0 µM probe concentration: 10%
HT-29; ± SEM 8 % growth
  Mean % growth (n = 2) for 0.01 µM probe concentration: 100%
HT-29; ± SEM 9 % growth
  Mean % growth (n = 2) for 100.0 µM probe concentration: -38%
[16]
  inhibition: 7%
[17]
  inhibition: 2%
[18]
  residual activity: 97%
[19]
  residual activity: 100%
[20]
  inhibition: 40%

## Cn1cc(Cl)c2c(Oc3c(F)cc(Nc4cc(Cl)nc(N)n4)cc3F)ccnc21 [BAY-4900]
[2]
  residual activity: 82%
[3]
  residual activity: 85%
[6]
  residual activity: 100%
[8]
  residual activity: 96%
[21]
  residual activity: 100%
[9]
  residual activity: 97%
[22]
  residual activity: 97%
[10]
  residual activity: 91%
[13]
  residual activity: 91%
[14]
  residual activity: 84%
[23]
  residual activity: 77%
[15]
  residual activity: 85%
[18]
  residual activity: 100%
[19]
  residual activity: 100%
[24]
  residual activity: 52%
